This experiment relates to slow reacting substance of anaphylaxis (SRS-A). Briefly: Inhibition of SRS-A induced contraction of guinea pig ileum. To be noted: Cavia porcellus, 0.25 h; compound concentration 5×10^-6 M; partially purified SRS-A from guinea pig lung at 40 μg/ml; isolated guinea pig ileum; read-out: percent antagonism of SRS-A induced contraction. The format is cell-based. The method, then:
The SRS-A antagonist activity of the compounds of this invention is measured by the ability of the active medicament to inhibit SRS-A induced contraction of guinea pig ileum. In this test system, sections of ileum are resected from guinea pigs and placed in 5 ml. tissue baths containing a modified Tyrode's solution. One end of the tissue is fixed to a glass tissue holder, the other is connected to a force-displacement transducer and the tissue is placed under a tension of 500 mg. Isometric tissue contractions are recorded on a six channel polygraph. Baths are constantly aerated with 95% O2 -5% CO2. After a 20 minute stabilization period a concentration of the appropriate agonist which provides a contraction height of 60-80% of the maximum obtainable to that agonist (as determined from full sequential concentration-response curves in separate experiments) is added to the tissue bath and the response recorded. The procedure is repeated until reproducible responses are obtained. […] Percent inhibition produced by the test compound is calculated by subtracting the mean percentage change in control tissue from the mean percentage change in tissues exposed to the test compound. Additional compounds are then evaluated as long as the tissue remains reproducibly responsive to the agonist. […]

The structures appear in SMILES notation.

For `O=C(NS(=O)(=O)N1CCc2ccc(Cl)c(Cl)c2C1)N1CCc2ccc(Cl)c(Cl)c2C1` [Compound 1, N-(7,8-Dichloro-1,2,3,4-tetrahydroisoquinolin-2yl)Carbonyl-7,8-dichloro-1,2,3,4-tetrahydroisoquinoline-2-sulfonamide], the inhibition at 5 µM amounted to 46%.

The record behind these values is patent publication US4350698A, “Antiallergic imidosulfamides” (SmithKline Corporation, priority 1981, dated 1982).
